# Reference: patent publication US9206200B2, “N-linked lactam M1 receptor positive allosteric mogulators” (Merck Sharp & Dohme Corp., priority 2011, dated 2015)
# Molecular target: T1, acetylcholine muscarinic M1 receptor (Homo sapiens, UniProt P11229)
# T1 construct: expressed in transfected cells; host or cells: CHOnfat cells (CHO cells with an NFAT reporter) expressing hM1, kept under Geneticin selection
# T1 sequence (P11229 1-460): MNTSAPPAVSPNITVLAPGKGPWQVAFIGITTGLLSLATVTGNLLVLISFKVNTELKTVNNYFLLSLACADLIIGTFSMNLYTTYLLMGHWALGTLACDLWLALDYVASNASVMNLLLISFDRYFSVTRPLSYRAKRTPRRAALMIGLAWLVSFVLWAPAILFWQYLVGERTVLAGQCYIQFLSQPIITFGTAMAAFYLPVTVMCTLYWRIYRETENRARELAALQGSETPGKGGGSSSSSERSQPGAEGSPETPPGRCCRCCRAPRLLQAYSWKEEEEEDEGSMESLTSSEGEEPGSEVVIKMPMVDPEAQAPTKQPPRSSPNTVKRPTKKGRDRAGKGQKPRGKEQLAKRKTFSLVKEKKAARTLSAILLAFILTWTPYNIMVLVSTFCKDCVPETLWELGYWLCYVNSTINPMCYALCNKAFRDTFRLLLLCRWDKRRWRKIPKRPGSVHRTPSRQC
# Test: muscarinic FLIPR assay: intracellular calcium in CHOnfat/hM1 cells, potentiation of EC20 acetylcholine
# Assay type: cell-based
# Conditions: Table 1; CHOnfat/hM1 cells, FLIPR, EC20 acetylcholine (3 nM final); read-out: M1 Pot.
# Method in brief: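 CHOnfat cells stably expressing human M1, Fluo-4AM-loaded, in HBSS with 20 mM HEPES, 2.5 mM probenecid, 1% BSA. Compounds preincubated 4 min (printed "4 mM") before an EC20 acetylcholine challenge (3 nM final). FLIPR intracellular Ca²⁺ signal compared with 3 nM acetylcholine alone to detect potentiation.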
row,Compound,EC50
1,"O=C1c2cc(CN3CCCC3)c3ccccc3c2CN1C1CCCCC1O (centres unmarked) [Example 23, 2-(2-Hydroxycyclohexyl)-5-(pyrrolidin-1-ylmethyl)-1,2-dihydro-3H-benzo[e]isoindol-3-one]",3800 nM
2,COc1ccc(N2CC3CC2CN3Cc2cc3c(c4ccccc24)CN([C@H]2CCCC[C@@H]2O)C3=O)cc1 (some centres unmarked) [Example 71],315 nM
3,"Cn1cc(N2CCN(Cc3cc4c(c5ccccc35)CN(c3ccccc3F)C4=O)CC2)cn1 [Example 66, 2-(2-fluorophenyl)-5-{[4-(1-methyl-1H-pyrazol-4-yl)piperazin-1-yl]methyl}-1,2-dihydro-3H-benzo[e]isoindol-3-one]",273 nM
4,"CS(=O)(=O)c1ccc(N2CCN(Cc3cc4c(c5ccccc35)CN([C@H]3CCCC[C@@H]3O)C4=O)CC2)cc1 [Example 68, 2-[(1S,2S)-2-hydroxycyclohexyl]-5-({4-[4-(methylsulfonyl)phenyl]piperazin-1-yl}methyl)-1,2-dihydro-3H-benzo[e]isoindol-3-one]",47 nM
5,"Cn1cc(N2CCN(Cc3cc4c(c5ccccc35)CN([C@@H]3CCCC[C@H]3O)C4=O)CC2)cn1 [Example 81, 2-[(1R,2R)-2-hydroxycyclohexyl]-5-{[4-(1-methyl-1H-pyrazol-4-yl)piperazin-1-yl]methyl}-1,2-dihydro-3H-benzo[e]isoindol-3-one]",496 nM

# Same assay, conditions: Table 2; CHOnfat/hM1 cells, FLIPR, EC20 acetylcholine (3 nM final); read-out: M1 Pot.
row,Compound,EC50
1,"CC1c2c(cc(CN3CCC(F)(F)CC3)c3cccnc23)C(=O)N1[C@@H]1CCCC[C@@H]1O (stereo partly drawn) [Example 104, 5-[(4,4-difluoropiperidin-1-yl)methyl]-8-[(1R,2S)-2-hydroxycyclohexyl]-9-methyl-8,9-dihydro-7H-pyrrolo[3,4-h]quinolin-7-one]",15 nM
2,"CC1c2c(cc(CN3CCN(c4cccnc4)CC3)c3cccnc23)C(=O)N1C1CCCCC1O (centres unmarked) [Example 164, 8-(2-hydroxycyclohexyl)-9-methyl-5-[(4-pyridin-3-ylpiperazin-1-yl)methyl]-8,9-dihydro-7H-pyrrolo[3,4-h]quinolin-7-one]",36 nM
3,"CC1c2c(cc(CN3CCC(F)(c4ccccn4)CC3)c3cccnc23)C(=O)N1[C@@H]1CCCC[C@@H]1O (stereo partly drawn) [Example 147, 5-[(4-fluoro-4-pyridin-2-ylpiperidin-1-yl)methyl]-8-[(1R,2S)-2-hydroxycyclohexyl]-9-methyl-8,9-dihydro-7H-pyrrolo[3,4-h]quinolin-7-one]",70 nM
4,"O=C1c2cc(CN3CCC(F)(Cc4ccccc4)CC3)c3cccnc3c2CN1C1CCCCC1O (centres unmarked) [Example 134, 5-[(4-benzyl-4-fluoropiperidin-1-yl)methyl]-8-(2-hydroxycyclohexyl)-8,9-dihydro-7H-pyrrolo[3,4-h]quinolin-7-one]",207 nM
5,"CC1c2c(cc(CN3CCC(F)CC3)c3cccnc23)C(=O)N1[C@H]1CCCC[C@@H]1O (stereo partly drawn) [Example 93, 5-[(4-fluoropiperidin-1-yl)methyl]-8-[(1S,2S)-2-hydroxycyclohexyl]-9-methyl-8,9-dihydro-7H-pyrrolo[3,4-h]quinolin-7-one]",70 nM
6,"O=C1c2cc(CN3CCCC3)c3cccnc3c2CN1C1CCCCC1O (centres unmarked) [Example 97, 8-(2-hydroxycyclohexyl)-5-(pyrrolidin-1-ylmethyl)-8,9-dihydro-7H-pyrrolo[3,4-h]quinolin-7-one]",5200 nM
7,"O=C1c2cc(CN3CCCCC3)c3cccnc3c2CN1[C@H]1CCCC[C@@H]1O [Example 86, 8-[(1S,2S)-2-hydroxycyclohexyl]-5-(piperidin-1-ylmethyl)-8,9-dihydro-7H-pyrrolo[3,4-h]quinolin-7-one]",2900 nM
8,"CC1c2c(cc(CN3CCN(c4ccccn4)CC3)c3cccnc23)C(=O)N1C1CCCCC1O (centres unmarked) [Example 166, 8-(2-hydroxycyclohexyl)-9-methyl-5-[(4-pyridin-2-ylpiperazin-1-yl)methyl]-8,9-dihydro-7H-pyrrolo[3,4-h]quinolin-7-one]",580 nM
9,"N#CC1(F)CCN(Cc2cc3c(c4ncccc24)CN(c2cccc(O)c2)C3=O)CC1 [Example 127, 4-fluoro-1-{[8-(3-hydroxyphenyl)-7-oxo-8,9-dihydro-7H-pyrrolo[3,4-h]quinolin-5-yl]methyl}piperidine-4-carbonitrile]",44 nM
